Where a name gives a salt, the structure may show the parent alone.
The compounds below were run on isolated, donor-perfused rat hearts (assay: inhibition of coronary vasoconstriction induced by acetylcholine 0.3 μg in isolated, donor-perfused rat hearts). Settings: 30 μg, administered in the artery.
Description: The effect of the compounds of the present invention to inhibit coronary vasoconstriction was studied. That vasoconstriction was induced by acetylcholine 0.3 μg in isolated, donor-perfused rat hearts (K. Sakai, Brit. J. Pharmacol., 68, 625-638, 1980), and determined by measuring the arterial perfusion pressure with a pressure transducer (Nihon Kohden MPU--0.5). The compounds of the present invention were administered in the artery in an amount between 30 and 60 μg.

First: CCOC(=O)c1ccc2c(c1)N(CCN(C)C)C(=O)c1cc(C(C)C)cc(C(C)C)c1O2 [Comp. of Ex. 1, 2,4-diisopropyl-10[2-(dimethylamino)ethyl]-8-ethoxycarbonyl-dibenz[b,f][1,4] oxazepine-11(10H)-one]
Second: CCOC(=O)c1ccc2c(c1)N(CCCN(C)C)C(=O)c1cc(C(C)C)cc(C(C)C)c1O2 [Comp. of Ex. 14]
The inhibition at 0.03 mg of the first is higher: ≥ 41% for the first, 31 to 40% for the second.

Compared with CC(C)c1cc2c(c(C(C)C)c1)Oc1ccccc1N(CCN(C)C)C2=O [Comp. of Ex. 2], CC(C)c1cc2c(c(C(C)C)c1)Oc1ccccc1N(CCCN(C)C)C2=O [Comp. of Ex. 3] is higher in inhibition at 0.03 mg: 31 to 40% for the first, ≥ 41% for the second.

COc1ccc2c(c1)N(CCCN(C)C)C(=O)c1cc(C(C)C)cc(C(C)C)c1O2 [Comp. of Ex. 5] and CC(C)c1cc2c(c(C(C)C)c1)Oc1ccc(C(=O)O)cc1N(CCN(C)C)C2=O [Comp. of Ex. 15, 2,4-diisopropyl-10-[2-(dimethylamino)ethyl]-8-carboxy-dibenz[b,f][1,4]-oxazepine-11(10H)-one hydrochloride] fall in the same range of inhibition at 0.03 mg: 20 to 30% for the first, 20 to 30% for the second.

First: CCOC(=O)c1ccc2c(c1)N(CCN(C)C)C(=O)c1cc(C(C)(C)CC)ccc1O2 [Comp. of Ex. 8]
Second: CCOC(=O)c1ccc2c(c1)N(CCCN(C)C)C(=O)c1cc(C(C)(C)CC)ccc1O2 [Comp. of Ex. 9]
The inhibition at 0.03 mg of the first is lower: 31 to 40% for the first, ≥ 41% for the second.

CCC(C)(C)c1ccc2c(c1)C(=O)N(CCCN(C)C)c1ccccc1O2 [Comp. of Ex. 10] and CC(C)c1cc2c(c(C(C)C)c1)Oc1ccc(C(N)=O)cc1N(CCN(C)C)C2=O [Comp. of Ex. 17, 2,4-diisopropyl-10-[2-(dimethylamino)ethyl]-8-carbamoyl-dibenz[b,f][1,4]oxazepine-11(10H)-one] fall in the same range of inhibition at 0.03 mg: 20 to 30% for the first, 20 to 30% for the second.

Same assay, conditions: 60 μg, administered in the artery

COc1ccc2c(c1)N(CCN(C)C)C(=O)c1cc(C(C)C)cc(C(C)C)c1O2 [Comp. of Ex. 4] was tested, and the inhibition at 0.06 mg was 20 to 30%.

Reference: patent US4379150A, “Dibenz[b,f][1,4]oxazepine derivatives, process for preparing the same, and pharmaceutical compositions comprising the same” (Chugai Seiyaku Kabushiki Kaisha, priority 1980, dated 1983)
